Source: PubChem BioAssay (NCI)
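Protocol summary: plate cells (96-well), add compound at 5 concentrations, incubate 48 h, interpolate endpoints linearly. The concentration for 50% growth inhibition is given as GI50. TGI marks complete inhibition of growth.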

What was measured:
Assay in all cases: NCI-60 cell line screen, 48 h
786-0 renal = test system: 786-0 renal
HOP-62 NSCLC = test system: HOP-62 NSCLC
UACC-257 melanoma = test system: UACC-257 melanoma
NCI-H522 lung = test system: NCI-H522 lung
U251 CNS = test system: U251 CNS
K-562 leukemia = test system: K-562 leukemia
OVCAR-3 ovarian = test system: OVCAR-3 ovarian
LOX IMVI melanoma = test system: LOX IMVI melanoma
OVCAR-4 ovarian = test system: OVCAR-4 ovarian
MCF7 breast = test system: MCF7 breast

## COc1cc(C2c3cc4c(cc3[C@@H](OCCN(C)C)C3COC(=O)[C@H]23)OCO4)cc(OC)c1O (stereo not given in full)
786-0 renal
  TGI: 0.663 µM
HOP-62 NSCLC
  TGI: 0.241 µM
UACC-257 melanoma
  TGI: 8.25 µM
NCI-H522 lung
  TGI: 1.7 µM
U251 CNS
  TGI: 1.27 µM
K-562 leukemia
  TGI: > 100 µM
OVCAR-3 ovarian
  TGI: 5.15 µM
LOX IMVI melanoma
  TGI: 1.27 µM
OVCAR-4 ovarian
  TGI: 6.33 µM

## O=c1cc(-c2ccccn2)[nH]c2cc(F)ccc12
786-0 renal
  TGI: > 100 µM
HOP-62 NSCLC
  TGI: > 100 µM
UACC-257 melanoma
  TGI: > 100 µM
NCI-H522 lung
  TGI: > 100 µM
K-562 leukemia
  TGI: > 100 µM
OVCAR-3 ovarian
  TGI: > 100 µM
LOX IMVI melanoma
  TGI: > 100 µM
OVCAR-4 ovarian
  TGI: > 100 µM

## COc1cc2c3c(ncc2c(OC)c1OC)-c1cc2c(cc1C3)OCO2
786-0 renal
  GI50: 33.7 µM
  TGI: > 100 µM
U251 CNS
  GI50: 27.6 µM
  TGI: > 100 µM
MCF7 breast
  GI50: 15.6 µM
  TGI: 59 µM
K-562 leukemia
  GI50: 4.27 µM
  TGI: 20.5 µM
OVCAR-4 ovarian
  GI50: 54 µM
  TGI: > 100 µM

## CCCCN(CCCC)CCc1c(C)cc(C)c(CCN(CCCC)CCCC)c1O
786-0 renal
  GI50: 2.96 µM
  TGI: 9.93 µM
HOP-62 NSCLC
  GI50: 3.3 µM
  TGI: 16.8 µM
UACC-257 melanoma
  GI50: 2.37 µM
  TGI: 7.44 µM
NCI-H522 lung
  GI50: 2.59 µM
  TGI: 7.54 µM
U251 CNS
  GI50: 3.24 µM
  TGI: 42.6 µM
MCF7 breast
  GI50: 2.39 µM
  TGI: 8.13 µM
K-562 leukemia
  GI50: 2.25 µM
  TGI: > 100 µM
LOX IMVI melanoma
  GI50: 2.67 µM
  TGI: > 100 µM
OVCAR-4 ovarian
  GI50: 3.13 µM
  TGI: > 100 µM

## Cc1c(Cl)cccc1NC(=O)/C(Cl)=C(\Cl)C(=O)O
786-0 renal
  TGI: 33.3 µM
HOP-62 NSCLC
  TGI: 78.5 µM
UACC-257 melanoma
  TGI: 36.7 µM
NCI-H522 lung
  TGI: 7.19 µM
U251 CNS
  TGI: 32.7 µM
K-562 leukemia
  TGI: > 100 µM
OVCAR-3 ovarian
  TGI: 34.1 µM
LOX IMVI melanoma
  TGI: 32.7 µM
OVCAR-4 ovarian
  TGI: 31.6 µM

## S=P(N1CCCC1)(N1CC1)N1CC1
786-0 renal
  TGI: > 100 µM
HOP-62 NSCLC
  TGI: > 100 µM
UACC-257 melanoma
  TGI: > 100 µM
NCI-H522 lung
  TGI: > 100 µM
U251 CNS
  TGI: > 100 µM
K-562 leukemia
  TGI: > 100 µM
OVCAR-3 ovarian
  TGI: > 100 µM
LOX IMVI melanoma
  TGI: > 100 µM
OVCAR-4 ovarian
  TGI: > 100 µM

## NC(=O)c1csc(C2CCC(CO)O2)n1 (stereo not given)
786-0 renal
  TGI: > 100 µM
HOP-62 NSCLC
  TGI: > 100 µM
UACC-257 melanoma
  TGI: > 100 µM
NCI-H522 lung
  TGI: > 100 µM
U251 CNS
  TGI: > 100 µM
K-562 leukemia
  TGI: > 100 µM
OVCAR-3 ovarian
  TGI: > 100 µM
LOX IMVI melanoma
  TGI: > 100 µM
OVCAR-4 ovarian
  TGI: > 100 µM

## CS(=O)(=O)NNS(=O)(=O)c1ccc(Cl)cc1
786-0 renal
  TGI: > 100 µM
HOP-62 NSCLC
  TGI: > 100 µM
UACC-257 melanoma
  TGI: > 100 µM
NCI-H522 lung
  TGI: > 100 µM
U251 CNS
  TGI: > 100 µM
K-562 leukemia
  TGI: > 100 µM
OVCAR-3 ovarian
  TGI: > 100 µM
LOX IMVI melanoma
  TGI: > 100 µM
OVCAR-4 ovarian
  TGI: > 100 µM

## COC(=O)c1ccc(C(=O)OC)c2nc3cc(C)ccc3nc12
786-0 renal
  TGI: > 100 µM
HOP-62 NSCLC
  TGI: > 100 µM
UACC-257 melanoma
  TGI: > 100 µM
U251 CNS
  TGI: > 100 µM
K-562 leukemia
  TGI: > 100 µM
OVCAR-3 ovarian
  TGI: > 100 µM
LOX IMVI melanoma
  TGI: > 100 µM
OVCAR-4 ovarian
  TGI: > 100 µM

## CCN(CC)CCOc1c(OC)c(Br)cc2c(C)c(C(=O)OC)oc12
786-0 renal
  GI50: 1.71 µM
  TGI: 6.04 µM
UACC-257 melanoma
  GI50: 1.53 µM
  TGI: 4.29 µM
NCI-H522 lung
  GI50: 1.32 µM
  TGI: 11.9 µM
U251 CNS
  GI50: 0.28 µM
  TGI: 0.97 µM
MCF7 breast
  GI50: 1.63 µM
  TGI: 5.74 µM
K-562 leukemia
  GI50: 0.332 µM
  TGI: 2.09 µM
OVCAR-3 ovarian
  GI50: 0.982 µM
  TGI: 2.28 µM
LOX IMVI melanoma
  GI50: 0.749 µM
  TGI: 1.45 µM
